Consider 18 molecules from ChEMBL document CHEMBL3286387, “α-Tetralone derivatives as inhibitors of monoamine oxidase” (Bioorg Med Chem Lett, 2014).

Broadly, the IC50 is the concentration needed to halve the response being measured. As usually defined, the Ki is a dissociation constant, usually derived from enzyme kinetics or from competition with a known ligand.

Data set [1] has as its target T1, Amine oxidase [flavin-containing] A (Homo sapiens, UniProt P21397).
T1 sequence (P21397 whole entry): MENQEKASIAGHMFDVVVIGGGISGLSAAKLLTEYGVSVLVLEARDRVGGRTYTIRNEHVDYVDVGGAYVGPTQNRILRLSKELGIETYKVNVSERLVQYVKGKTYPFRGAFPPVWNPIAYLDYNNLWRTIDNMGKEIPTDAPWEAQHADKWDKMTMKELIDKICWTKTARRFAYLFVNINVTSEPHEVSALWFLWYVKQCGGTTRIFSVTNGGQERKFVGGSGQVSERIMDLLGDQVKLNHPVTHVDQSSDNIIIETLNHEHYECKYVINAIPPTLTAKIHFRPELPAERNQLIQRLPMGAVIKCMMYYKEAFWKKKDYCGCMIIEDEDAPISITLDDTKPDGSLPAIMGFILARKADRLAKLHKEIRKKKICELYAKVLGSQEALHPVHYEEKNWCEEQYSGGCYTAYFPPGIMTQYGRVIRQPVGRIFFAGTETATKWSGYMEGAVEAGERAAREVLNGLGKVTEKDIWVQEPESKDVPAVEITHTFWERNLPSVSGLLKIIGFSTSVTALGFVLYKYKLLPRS
Description: Inhibition of recombinant human MAO-A using kynuramine as substrate assessed as 4-hydroxyquinoline production after 30 mins by fluorescence spectrophotometry analysis.

Data set [2] deals with T2, Amine oxidase [flavin-containing] B (Homo sapiens, UniProt P27338).
T2 sequence (P27338 whole entry): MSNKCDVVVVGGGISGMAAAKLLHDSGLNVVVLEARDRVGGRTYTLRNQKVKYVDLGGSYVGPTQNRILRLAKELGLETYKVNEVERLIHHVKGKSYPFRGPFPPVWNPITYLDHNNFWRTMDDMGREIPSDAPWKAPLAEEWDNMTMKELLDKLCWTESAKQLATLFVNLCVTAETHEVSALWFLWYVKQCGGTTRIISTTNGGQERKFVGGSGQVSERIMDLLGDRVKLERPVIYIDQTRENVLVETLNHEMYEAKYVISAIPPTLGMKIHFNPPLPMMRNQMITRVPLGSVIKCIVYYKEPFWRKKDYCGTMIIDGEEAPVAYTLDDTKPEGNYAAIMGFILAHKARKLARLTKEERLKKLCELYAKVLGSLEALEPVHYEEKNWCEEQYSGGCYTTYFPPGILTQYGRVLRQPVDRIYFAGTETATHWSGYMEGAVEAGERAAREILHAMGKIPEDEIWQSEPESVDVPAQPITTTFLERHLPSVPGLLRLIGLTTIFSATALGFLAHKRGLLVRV
Description: Inhibition of recombinant human MAO-B using kynuramine as substrate assessed as 4-hydroxyquinoline production after 30 mins by fluorescence spectrophotometry analysis.

For the next data set, the species on record is Homo sapiens. Description: Selectivity index, ratio of IC50 for recombinant human MAO-A to IC50 for recombinant human MAO-B.
Data set [3] concerns the target T2, Amine oxidase [flavin-containing] B. Description: Reversible inhibition of recombinant human MAO-B using kynuramine as substrate assessed as enzyme residual activity at 4 times IC50 incubated for 15 mins measured after 24 hrs by fluorescence spectrophotometry analysis relative to control.
Data set [4] has the same target. Description: Competitive inhibition of recombinant human MAO-B using kynuramine as substrate by Lineweaver-Burk plot analysis.
The target of data set [5] is T1, Amine oxidase [flavin-containing] A. Description: Reversible inhibition of recombinant human MAO-A using kynuramine as substrate assessed as enzyme residual activity at 4 times IC50 incubated for 15 mins measured after 24 hrs of dialysis by fluorescence spectrophotometry analysis relative to control.
Data set [6] shares this target. The data set is described as follows: Reversible inhibition of recombinant human MAO-A using kynuramine as substrate assessed as enzyme residual activity at 4 times IC50 incubated for 15 mins measured after 24 hrs by fluorescence spectrophotometry analysis relative to control.
The target is the same in data set [7]. The data set is described as follows: Competitive inhibition of recombinant human MAO-A using kynuramine as substrate by Lineweaver-Burk plot analysis.

As to `O=C1CCCc2cc(OCc3cccc(Cl)c3)ccc21`, the IC50 in data set [1] amounted to 207 nM; in data set [2], 15 nM. For the same molecule, in the data set filed under Homo sapiens, the Ratio IC50 amounted to 14.
Take `O=C1CCCc2cc(OCCc3ccccc3)ccc21`: the IC50 in data set [1] worked out at 1320 nM; in data set [2], 33 nM. In addition, the Ratio IC50 in the data set listed under Homo sapiens came to 40.
In the same order, the values of `O=C1CCCc2cc(OCc3ccccc3)ccc21` are 792 nM, 63 nM and 13.
In the same order, the values of `O=C1CCCc2cc(OCCCc3ccccc3)ccc21` are 1160 nM, 32 nM and 36.
Take `O=C1CCCc2cc(OCc3ccc(I)cc3)ccc21`: the IC50 came to 2250 nM in data set [1] and 6.5 nM in data set [2]. Moreover, the Ratio IC50 in the data set listed under Homo sapiens came out at 346.
Consider `O=C1CCCc2cc(OCc3ccc(Cl)cc3)ccc21`, for which, in data set [1], the IC50 is 238 nM.
For the molecule `O=C1CCCc2cc(OCc3ccc(C(F)(F)F)cc3)ccc21`, the IC50 in data set [1] is 547 nM; in data set [2], 6 nM. Further, in the data set filed under Homo sapiens, the Ratio IC50 was 91.
Take `O=C1CCCc2cc(OCc3cccc(I)c3)ccc21`: the IC50 came to 1290 nM in data set [1] and 4.5 nM in data set [2]. The Ratio IC50 in the data set filed under Homo sapiens worked out at 287. In addition, in data set [3], the Activity was found to be 23%. The Ki in data set [4] is 7.1 nM.
`N#Cc1ccc(COc2ccc3c(c2)CCCC3=O)cc1`: the IC50 came to 656 nM in data set [1] and 11 nM in data set [2]. The Ratio IC50 in the data set listed under Homo sapiens stood at 60.
With `O=C1CCCc2cc(OCc3cccc(Br)c3)ccc21`, the IC50 in data set [1] worked out at 212 nM; in data set [2], 9 nM. Further, in the data set filed under Homo sapiens, the Ratio IC50 was determined as 24.
Regarding `Cc1ccc(COc2ccc3c(c2)CCCC3=O)cc1`, the results for the IC50 in data set [1] and in data set [2] were 2090 nM and 11 nM, respectively. Further, the Ratio IC50 in the data set filed under Homo sapiens came to 190.
On to `O=C1CCCc2cc(OCc3cccc(F)c3)ccc21`, for which the results for the IC50 in data set [1] and in data set [2] were 392 nM and 17 nM, respectively. Besides, the Ratio IC50 in the data set filed under Homo sapiens came to 23.
On to `O=C1CCCc2ccccc21`, for which the IC50 is 14800 nM in data set [1] and 18600 nM in data set [2]. Further, the Ratio IC50 in the data set listed under Homo sapiens was found to be 0.8.
Take `N#Cc1cccc(COc2ccc3c(c2)CCCC3=O)c1`: the IC50 in data set [1] is 24 nM; in data set [2], 78 nM. The Ratio IC50 in the data set filed under Homo sapiens came out at 0.3. In addition, the values for the Activity in data set [5] and in data set [6] were 108% and 44%, respectively. Moreover, in data set [7], the Ki came out at 25 nM.
`C#CCN(C)Cc1ccccc1` [PARGYLINE]: in data set [5], the Activity is reported as 1.6%.
`O=C1CCCc2cc(OCc3ccc(Br)cc3)ccc21`: the values for the IC50 in data set [1] and in data set [2] were 311 nM and 9 nM, respectively. In addition, in the data set filed under Homo sapiens, the Ratio IC50 was found to be 35.
Regarding `O=C1CCCc2cc(O)ccc21`, the results for the IC50 in data set [1] and in data set [2] were 43800 nM and 66400 nM, respectively. In addition, the Ratio IC50 in the data set listed under Homo sapiens worked out at 0.7.
As to `O=C1CCCc2cc(OCc3ccc(F)cc3)ccc21`, the IC50 in data set [1] amounted to 266 nM.
